Calls of active or inactive are those of the source.
Key:
[1] = target: Photoreceptor-specific nuclear receptor (Homo sapiens, UniProt Q9Y5X4); type: functional, cell-based;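 further: CHO-S cells with Gal4-NCOR and VP16-NR2E3 two-hybrid luciferase reporter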
[2] = target: T1, COUP transcription factor 2 (Homo sapiens, UniProt P24468); assay: Luminescence-based cell-based high throughput dose response assay to identify inhibitors of COUP-TFII (NR2F2).; type: functional;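 further: HEK293 cells transiently cotransfected with COUP-TFII expression vector and reporter; luciferase reporter luminescence driven by COUP-TFII from the pX2-168 reporter plasmid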
T1 sequence (P24468 whole entry): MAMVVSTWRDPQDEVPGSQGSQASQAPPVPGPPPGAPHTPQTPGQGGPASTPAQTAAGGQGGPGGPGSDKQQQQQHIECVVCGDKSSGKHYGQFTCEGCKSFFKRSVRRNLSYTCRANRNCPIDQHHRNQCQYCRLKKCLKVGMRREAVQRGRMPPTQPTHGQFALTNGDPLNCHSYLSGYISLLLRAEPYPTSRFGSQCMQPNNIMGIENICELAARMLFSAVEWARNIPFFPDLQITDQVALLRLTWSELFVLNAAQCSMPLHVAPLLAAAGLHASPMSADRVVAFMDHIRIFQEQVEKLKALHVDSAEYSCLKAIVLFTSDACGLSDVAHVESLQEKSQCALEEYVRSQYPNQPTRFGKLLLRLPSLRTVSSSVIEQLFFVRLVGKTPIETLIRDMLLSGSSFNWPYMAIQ

[3] = system: P388/ADR; assay: cells; type: functional; conditions: Mus musculus
[4] = system: SN12K1; assay: cells; type: functional; conditions: Homo sapiens
[5] = system: P388; assay: cells; type: functional; conditions: Mus musculus
[6] = target: T2, Endoribonuclease toxin MazF (Escherichia coli K-12, UniProt P0AE70); assay: activation of MazEF endoribonuclease cleavage – biochemical, fluorescence, single-stranded RNA substrate, uHTS hits, dose response (AID 588481); type: functional
T2 sequence (P0AE70 whole entry): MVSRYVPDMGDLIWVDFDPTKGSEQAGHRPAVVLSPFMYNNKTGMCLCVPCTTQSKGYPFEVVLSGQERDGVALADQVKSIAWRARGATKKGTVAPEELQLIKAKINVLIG

[7] = target: T2, Endoribonuclease toxin MazF; assay: substrate-only fluorescence increase artefacts – biochemical, single-stranded RNase substrate, counter-screen for MazEF activator project, dose response (AID 588502); type: functional
[8] = target: T3, Carboxy-terminal domain RNA polymerase II polypeptide A small phosphatase 1 (Homo sapiens, UniProt Q9GZU7); assay: CTDSP1 inhibitors, concentration-response, biochemical, absorbance readout, ultra-high-throughput screen actives (AID 540297); type: functional
T3 sequence (Q9GZU7 whole entry): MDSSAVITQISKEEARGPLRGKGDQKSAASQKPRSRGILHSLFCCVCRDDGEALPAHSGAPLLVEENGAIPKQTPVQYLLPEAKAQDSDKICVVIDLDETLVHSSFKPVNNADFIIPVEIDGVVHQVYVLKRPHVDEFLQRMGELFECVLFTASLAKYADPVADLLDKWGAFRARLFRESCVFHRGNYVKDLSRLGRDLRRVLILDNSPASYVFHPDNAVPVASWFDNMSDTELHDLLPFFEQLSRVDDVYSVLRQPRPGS

[9] = target: Tyrosine-protein phosphatase non-receptor type 11 (Homo sapiens, UniProt Q06124); assay: PTPN11 enzyme inhibitors – biochemical, selectivity assay for STEP inhibitor project, dose response (AID 602367); type: functional; conditions: read-out: IC50_Mean
[10] = target: Tyrosine-protein phosphatase non-receptor type 5 (Homo sapiens, UniProt P54829); assay: PTPN5 enzyme inhibition – biochemical, fluorescence intensity, uHTS hits, confirmation (AID 602372); type: functional; conditions: read-out: IC50_Mean
[11] = target: Dual specificity protein phosphatase 3 (Homo sapiens, UniProt P51452); assay: VHR phosphatase inhibition, dose response, selectivity assay for STEP inhibitor project, biochemical (AID 602374); type: functional; conditions: read-out: IC50_Mean
[12] = target: T4, Low molecular weight phosphotyrosine protein phosphatase (Homo sapiens, UniProt P24666); type: functional; conditions: read-out: IC50_Mean
T4 sequence (P24666 whole entry): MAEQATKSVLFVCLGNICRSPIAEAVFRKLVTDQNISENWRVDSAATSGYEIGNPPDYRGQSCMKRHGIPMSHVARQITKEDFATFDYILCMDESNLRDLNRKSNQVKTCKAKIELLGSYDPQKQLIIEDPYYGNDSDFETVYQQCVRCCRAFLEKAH

[13] = target: T4, Low molecular weight phosphotyrosine protein phosphatase; type: functional; conditions: read-out: IC50_Mean; remark: listed apart in the source
[14] = target: DNA dC->dU-editing enzyme APOBEC-3A (Homo sapiens, UniProt P31941); assay: SAR analysis of small molecule inhibitors of APOBEC3A DNA Deaminase via a fluorescence-based single-stranded DNA deaminase assay - Set 2.; type: functional; conditions: read-out: IC50_Mean
[15] = target: DNA dC->dU-editing enzyme APOBEC-3G (Homo sapiens, UniProt Q9HC16); assay: SAR analysis of small molecule inhibitors of APOBEC3G DNA Deaminase via a fluorescence-based single-stranded DNA deaminase assay - Set 2.; type: functional; conditions: read-out: IC50_Mean
[16] = target: T5, Neuropeptide Y receptor type 1 (Homo sapiens, UniProt P25929); type: functional;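 further: HEK293 cells with a CNG channel challenged with NPY then isoproterenol; potency as antagonist that reverses NPY suppression of cAMP signal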
T5 sequence (P25929 whole entry): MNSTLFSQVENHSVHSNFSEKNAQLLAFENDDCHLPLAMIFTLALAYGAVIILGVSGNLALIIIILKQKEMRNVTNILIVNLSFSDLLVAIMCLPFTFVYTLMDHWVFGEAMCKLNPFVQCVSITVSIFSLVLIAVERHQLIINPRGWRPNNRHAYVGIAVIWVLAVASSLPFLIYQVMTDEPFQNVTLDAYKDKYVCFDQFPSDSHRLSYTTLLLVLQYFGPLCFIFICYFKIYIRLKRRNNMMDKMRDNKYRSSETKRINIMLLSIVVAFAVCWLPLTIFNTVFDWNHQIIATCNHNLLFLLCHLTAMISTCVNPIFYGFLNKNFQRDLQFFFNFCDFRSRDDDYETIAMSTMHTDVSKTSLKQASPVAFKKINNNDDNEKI

[17] = target: T6, Neuropeptide Y receptor type 2 (Homo sapiens, UniProt P49146); type: functional, cell-based;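 further: HEK293 cells expressing the receptor and a CNG channel; stimulus was NPY near EC95 followed by isoproterenol to raise cAMP; antagonist potency measured as restoring cAMP signal that NPY suppresses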
T6 sequence (P49146 whole entry): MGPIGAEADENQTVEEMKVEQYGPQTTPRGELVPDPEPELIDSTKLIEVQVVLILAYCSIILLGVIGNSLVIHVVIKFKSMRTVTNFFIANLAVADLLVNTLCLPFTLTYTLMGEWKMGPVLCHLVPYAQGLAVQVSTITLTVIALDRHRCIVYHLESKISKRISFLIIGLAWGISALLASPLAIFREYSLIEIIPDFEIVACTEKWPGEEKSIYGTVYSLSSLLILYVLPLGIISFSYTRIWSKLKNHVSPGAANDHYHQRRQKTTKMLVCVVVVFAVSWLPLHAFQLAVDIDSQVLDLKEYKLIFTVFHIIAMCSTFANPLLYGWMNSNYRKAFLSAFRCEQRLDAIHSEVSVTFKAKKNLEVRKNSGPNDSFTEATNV

[18] = target: T7, Cysteine protease ATG4B (Homo sapiens, UniProt Q9Y4P1); type: functional;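 further: Fluorescence-based dose-response confirmation assay measuring inhibition of ATG4B activity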
T7 sequence (Q9Y4P1 whole entry): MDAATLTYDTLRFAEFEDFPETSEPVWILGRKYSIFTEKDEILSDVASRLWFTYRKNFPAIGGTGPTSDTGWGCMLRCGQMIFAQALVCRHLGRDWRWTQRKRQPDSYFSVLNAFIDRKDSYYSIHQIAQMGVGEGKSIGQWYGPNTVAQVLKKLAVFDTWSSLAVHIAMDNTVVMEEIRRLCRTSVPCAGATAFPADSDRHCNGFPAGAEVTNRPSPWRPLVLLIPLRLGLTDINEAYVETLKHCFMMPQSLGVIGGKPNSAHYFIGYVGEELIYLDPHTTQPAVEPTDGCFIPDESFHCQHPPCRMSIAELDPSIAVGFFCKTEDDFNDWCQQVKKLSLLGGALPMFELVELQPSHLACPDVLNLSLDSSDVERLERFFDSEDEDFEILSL

[19] = target: Phospholipase A2 (Homo sapiens, UniProt P04054); type: functional;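 further: confirmatory dose-response counterscreen on phospholipase A2, testing hits that came from an ultra-high-throughput screen for ATG4B inhibitors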
[20] = target: T8, Aryl hydrocarbon receptor (Homo sapiens, UniProt P35869); conditions: Potency;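 further: confirmatory quantitative high-throughput screen measuring activation of the AhR signaling pathway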
T8 sequence (P35869 whole entry): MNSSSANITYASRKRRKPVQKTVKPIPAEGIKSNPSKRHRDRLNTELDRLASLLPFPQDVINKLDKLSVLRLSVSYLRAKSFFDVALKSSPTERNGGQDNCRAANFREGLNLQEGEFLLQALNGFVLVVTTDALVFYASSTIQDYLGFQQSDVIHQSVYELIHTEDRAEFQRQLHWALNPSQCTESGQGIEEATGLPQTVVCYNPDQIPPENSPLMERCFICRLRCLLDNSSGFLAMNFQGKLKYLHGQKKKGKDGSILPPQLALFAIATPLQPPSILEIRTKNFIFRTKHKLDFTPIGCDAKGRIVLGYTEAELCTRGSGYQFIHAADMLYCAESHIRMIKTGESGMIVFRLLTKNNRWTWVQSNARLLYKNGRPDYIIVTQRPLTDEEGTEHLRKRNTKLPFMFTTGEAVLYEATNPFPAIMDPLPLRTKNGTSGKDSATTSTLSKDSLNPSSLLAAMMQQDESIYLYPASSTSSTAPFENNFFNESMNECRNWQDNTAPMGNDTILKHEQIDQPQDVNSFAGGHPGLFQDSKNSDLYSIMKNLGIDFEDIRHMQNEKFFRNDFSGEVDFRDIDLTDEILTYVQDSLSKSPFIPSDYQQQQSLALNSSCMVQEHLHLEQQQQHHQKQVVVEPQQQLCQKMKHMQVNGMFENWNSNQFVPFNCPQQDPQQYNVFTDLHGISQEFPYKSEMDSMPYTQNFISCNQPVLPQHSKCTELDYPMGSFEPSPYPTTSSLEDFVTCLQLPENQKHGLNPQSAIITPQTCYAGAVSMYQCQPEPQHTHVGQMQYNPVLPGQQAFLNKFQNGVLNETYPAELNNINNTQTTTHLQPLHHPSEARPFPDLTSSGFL

[21] = target: T9, Mitochondrial peptide methionine sulfoxide reductase (Bos taurus, UniProt P54149); assay: Absorbance-based biochemical high throughput dose response assay for activators of Methionine sulfoxide reductase A (MsrA).; type: functional
T9 sequence (P54149 whole entry): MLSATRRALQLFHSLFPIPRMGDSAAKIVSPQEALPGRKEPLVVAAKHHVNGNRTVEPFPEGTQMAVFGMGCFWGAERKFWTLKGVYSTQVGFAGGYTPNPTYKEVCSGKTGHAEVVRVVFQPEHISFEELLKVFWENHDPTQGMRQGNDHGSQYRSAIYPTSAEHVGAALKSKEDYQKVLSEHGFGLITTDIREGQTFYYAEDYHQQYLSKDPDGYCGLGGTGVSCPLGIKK

[22] = target: T10, Caspase-6 (Homo sapiens, UniProt P55212); assay: inhibition of CASP6 peptide cleavage – biochemical, VEID-R110 fluorescence, cherry-pick, dose response (AID 720632)
T10 sequence (P55212 whole entry): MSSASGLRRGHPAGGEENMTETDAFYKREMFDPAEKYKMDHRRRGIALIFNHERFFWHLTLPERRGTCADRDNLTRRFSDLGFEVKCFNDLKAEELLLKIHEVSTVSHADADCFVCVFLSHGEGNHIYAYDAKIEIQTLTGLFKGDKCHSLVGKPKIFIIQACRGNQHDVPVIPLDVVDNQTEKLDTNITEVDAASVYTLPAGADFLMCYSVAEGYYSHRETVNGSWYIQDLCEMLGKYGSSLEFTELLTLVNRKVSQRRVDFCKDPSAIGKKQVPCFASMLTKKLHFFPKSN

Chain of Dual specificity protein phosphatase 3 (P51452 whole entry): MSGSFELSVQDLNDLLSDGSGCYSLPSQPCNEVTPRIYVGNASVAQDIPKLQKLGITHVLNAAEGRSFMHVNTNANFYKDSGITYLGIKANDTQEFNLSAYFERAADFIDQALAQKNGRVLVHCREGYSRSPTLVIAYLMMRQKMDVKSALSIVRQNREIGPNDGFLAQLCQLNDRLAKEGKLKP
Chain of Photoreceptor-specific nuclear receptor (Q9Y5X4 whole entry, the tested form may be a part): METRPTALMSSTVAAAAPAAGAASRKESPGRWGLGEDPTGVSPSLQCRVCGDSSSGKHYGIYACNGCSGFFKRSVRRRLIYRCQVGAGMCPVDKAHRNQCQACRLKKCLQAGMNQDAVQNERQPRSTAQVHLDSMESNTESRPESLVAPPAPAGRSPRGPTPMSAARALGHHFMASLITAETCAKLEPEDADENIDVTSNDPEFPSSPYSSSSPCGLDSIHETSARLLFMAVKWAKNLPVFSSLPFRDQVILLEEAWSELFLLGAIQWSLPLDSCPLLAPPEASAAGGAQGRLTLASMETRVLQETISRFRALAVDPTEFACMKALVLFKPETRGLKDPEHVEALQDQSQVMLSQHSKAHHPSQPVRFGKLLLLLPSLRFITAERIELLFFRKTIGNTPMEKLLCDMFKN
Chain of Tyrosine-protein phosphatase non-receptor type 11 (Q06124 whole entry): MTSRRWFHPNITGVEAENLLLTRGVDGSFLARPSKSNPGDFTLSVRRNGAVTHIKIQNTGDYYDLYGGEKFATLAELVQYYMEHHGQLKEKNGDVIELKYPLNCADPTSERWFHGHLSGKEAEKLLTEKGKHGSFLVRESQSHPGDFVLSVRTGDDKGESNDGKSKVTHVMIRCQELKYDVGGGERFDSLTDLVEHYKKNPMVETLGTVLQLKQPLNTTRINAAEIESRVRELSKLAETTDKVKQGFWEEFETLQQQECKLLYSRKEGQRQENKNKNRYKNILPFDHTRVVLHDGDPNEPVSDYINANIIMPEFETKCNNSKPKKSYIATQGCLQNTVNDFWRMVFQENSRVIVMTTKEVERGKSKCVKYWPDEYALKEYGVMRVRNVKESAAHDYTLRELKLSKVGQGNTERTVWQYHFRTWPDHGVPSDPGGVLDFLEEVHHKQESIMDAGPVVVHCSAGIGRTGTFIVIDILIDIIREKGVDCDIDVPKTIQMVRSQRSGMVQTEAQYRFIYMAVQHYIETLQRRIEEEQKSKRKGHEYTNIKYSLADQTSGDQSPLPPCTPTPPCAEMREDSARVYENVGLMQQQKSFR
Chain of Tyrosine-protein phosphatase non-receptor type 5 (P54829 whole entry): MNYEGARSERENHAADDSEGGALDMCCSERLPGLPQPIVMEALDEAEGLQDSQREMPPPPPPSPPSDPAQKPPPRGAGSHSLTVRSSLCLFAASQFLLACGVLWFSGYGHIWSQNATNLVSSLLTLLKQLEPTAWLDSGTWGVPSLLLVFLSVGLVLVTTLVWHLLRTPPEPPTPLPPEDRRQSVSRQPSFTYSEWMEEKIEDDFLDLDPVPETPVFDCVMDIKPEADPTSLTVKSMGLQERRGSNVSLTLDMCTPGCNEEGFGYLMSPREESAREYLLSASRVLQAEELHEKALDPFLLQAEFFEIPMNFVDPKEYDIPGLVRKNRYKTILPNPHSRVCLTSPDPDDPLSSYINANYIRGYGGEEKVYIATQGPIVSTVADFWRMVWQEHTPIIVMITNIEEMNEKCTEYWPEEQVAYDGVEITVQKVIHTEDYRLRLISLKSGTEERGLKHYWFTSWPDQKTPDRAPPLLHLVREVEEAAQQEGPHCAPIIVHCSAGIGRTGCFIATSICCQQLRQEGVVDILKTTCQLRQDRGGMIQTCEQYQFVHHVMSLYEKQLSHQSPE
Chain of Phospholipase A2 (P04054 whole entry): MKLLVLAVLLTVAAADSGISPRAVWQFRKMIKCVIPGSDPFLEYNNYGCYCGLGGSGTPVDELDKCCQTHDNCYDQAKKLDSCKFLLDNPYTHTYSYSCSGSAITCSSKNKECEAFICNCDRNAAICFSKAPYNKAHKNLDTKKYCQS
Chain of DNA dC->dU-editing enzyme APOBEC-3G (Q9HC16 whole entry): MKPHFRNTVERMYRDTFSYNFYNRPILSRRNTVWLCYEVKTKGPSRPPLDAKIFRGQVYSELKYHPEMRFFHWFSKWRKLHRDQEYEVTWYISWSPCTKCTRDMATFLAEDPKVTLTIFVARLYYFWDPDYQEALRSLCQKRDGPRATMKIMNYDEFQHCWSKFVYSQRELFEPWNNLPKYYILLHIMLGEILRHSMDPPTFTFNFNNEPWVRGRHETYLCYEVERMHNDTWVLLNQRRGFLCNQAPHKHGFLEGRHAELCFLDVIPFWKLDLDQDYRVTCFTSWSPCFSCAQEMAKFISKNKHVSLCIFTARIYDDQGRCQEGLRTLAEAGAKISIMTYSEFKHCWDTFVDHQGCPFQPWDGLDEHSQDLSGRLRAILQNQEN
Chain of DNA dC->dU-editing enzyme APOBEC-3A (P31941 whole entry): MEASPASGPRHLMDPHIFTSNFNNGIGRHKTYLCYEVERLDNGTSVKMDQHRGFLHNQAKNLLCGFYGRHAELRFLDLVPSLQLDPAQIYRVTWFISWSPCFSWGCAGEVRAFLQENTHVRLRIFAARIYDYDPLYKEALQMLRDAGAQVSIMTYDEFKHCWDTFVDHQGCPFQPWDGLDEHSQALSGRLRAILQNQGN

c1ccc(C(Cc2nc(-c3ccncc3)no2)c2ccccc2)cc1
IC50 [1]: 5.57 µM (active)
IC50 [2]: 14 µM (inactive)

COc1cc([C@@H]2c3cc4c(cc3C[C@H]3COC(=O)[C@@H]32)OCO4)cc(OC)c1OC [DESOXYPODOPHYLLOTOXIN]
GI50 [3]: 0.0108 µM (active)
GI50 [4]: 0.00596 µM (active)
GI50 [5]: 0.005 µM (active)

CN1c2c(O)nc(N)nc2NCC1CCNc1ccc(C(=O)NC(CCC(=O)O)C(=O)O)cc1 (stereo unspecified)
GI50 [3]: 2.49 µM (inactive)
GI50 [4]: 5.5 µM (inactive)
GI50 [5]: 4.5 µM (inactive)

CCSc1nnc(N2C(=O)C(O)=C(C(=O)c3ccco3)C2c2cccc(OC)c2)s1 (stereo unspecified)
EC50 [6]: > 99 µM (inactive)
EC50 [7]: > 99 µM (inactive)

O=C(NC(=O)N1CCN(c2cccc(Cl)c2)CC1)c1ccccc1
IC50 [1]: 4.75 µM (active)

O=C(CCc1ccccc1)NNC(=O)c1ccc(NC(=O)c2ccccc2)cc1
IC50 [8]: 6.27 µM (active)
IC50 [9]: 3.98 µM (active)
IC50 [10]: 17.3 µM (active)
IC50 [11]: 3.9 µM (active)
IC50 [12]: 24.9 µM (inactive)
IC50 [13]: 31.2 µM (inactive)

CN(Cc1ccccc1)C(=O)c1cc2ncc(Br)cn2n1
IC50 [14]: 34.5 µM (inactive)
IC50 [15]: 77.8 µM (inactive)

CCCCCCNC(=O)C(C)C1CCC2(C)C=CC(=O)C(C)=C2C1O (stereo unspecified)
GI50 [3]: > 42.3 µM (inactive)
GI50 [4]: > 100 µM (inactive)
GI50 [5]: 62.5 µM (inactive)

CC(Sc1ccc(Cl)cc1)C(=O)Nc1ccccc1-c1ccccc1 (stereo unspecified)
IC50 [16]: 10.3 µM (not active)
IC50 [17]: 4.77 µM (active)
IC50 [18]: 49.7 µM (inactive)
IC50 [19]: 4.74 µM (active)

O=[N+]([O-])c1cc(C(F)(F)F)c(Cl)c([N+](=O)[O-])c1Nc1ncc(C(F)(F)F)cc1Cl [FLUAZINAM]
AC50 [20]: 31.6 µM (inconclusive)

NC(=S)NN=C1CSSC1
EC50 [21]: 12.9 µM (inactive)

Nc1c(Cl)c(Cl)c(Cl)c(Cl)c1Cl
AC50 [20]: 44.7 µM (inconclusive)

N=c1c[n+](N2CCOCC2)[n-]o1
EC50 [6]: 30.3 µM (inactive)
EC50 [7]: > 99 µM (inactive)

CC(=O)N1CCOc2ccc(S(=O)(=O)NCc3ccc(F)cc3)cc21
IC50 [8]: 9.32 µM (active)
IC50 [9]: 4.64 µM (active)
IC50 [10]: 56.5 µM (inactive)
IC50 [11]: 2.66 µM (active)
AC50 [22]: 11.2 µM (active)
